Source: patent EP4610269A1, “UROKINASE PLASMINOGEN ACTIVATOR SURFACE RECEPTOR (UPAR) LIGANDS FOR DIAGNOSTIC OR THERAPEUTIC USE” (3B Pharmaceuticals GmbH, priority 2024, dated 2025)
Where a SMILES comes first, the peptide text is derived from it. Bridges are numbered along the chain shown (N, C = ends). [ ]: non-standard residue; d: D form. The star is where a group is joined. DOTA = O=C(O)CN1CCN(CC(=O)O)CCN(CC(=O)*)CCN(CC(=O)O)CC1; Oic = O=C(O)[C@@H]1C[C@@H]2CCCC[C@@H]2N1; Phe(2-Cl) = N[C@@H](Cc1ccccc1Cl)C(=O)O; Dopa = N[C@@H](Cc1ccc(O)c(O)c1)C(=O)O; cisHyp = O=C(O)[C@@H]1C[C@H](O)CN1; Hyp = O=C(O)[C@@H]1C[C@@H](O)CN1; NMeF = CN[C@@H](Cc1ccccc1)C(=O)O; 3Pal = N[C@@H](Cc1cccnc1)C(=O)O; Pentanoyl(4-Me) = CC(C)CCC(=O)*; Cit = NC(=O)NCCC[C@H](N)C(=O)O; Pen = CC(C)(S)[C@H](N)C(=O)O; Dab = NCC[C@H](N)C(=O)O; Nva = CCC[C@H](N)C(=O)O; Pentanoyl = CCCCC(=O)*; Ava = NCCCCC(=O)O

Key:
human uPAR (uPAR-Fc) = target: T1, human uPAR (uPAR-Fc) (Homo sapiens, UniProt Q03405); assay: Surface plasmon resonance (SPR) assay, single cycle kinetics; type: binding; settings: pKD category for uPAR SPR activity assay; uPAR-Fc on Protein A-Chip, single cycle kinetics, 25°C; read-out: pKD CAT (converted)
T1 construct: comprising amino acids Leu23-Arg303 according to UniProt entry Q03405.1; purchased R&D Systems 10378-UK-100
How it was run: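 uPAR-Fc (Leu23-Arg303 extracellular domains, human IgG1 Fc) captured on Protein A chip to ~2000 RU; single-cycle kinetics at 25°C in HEPES running buffer pH 7.4 with 0.1% DMSO. KD from double-referenced sensorgrams fitted to 1:1 Langmuir model, reported as pKD.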

[1] = target: T2, uPAR-expressing HEC-265 human endometrial adenocarcinoma cells (Homo sapiens, UniProt Q03405); assay: Competitive FACS binding assay; settings: pIC50 category of FACS binding
T2 construct: Cell surface uPAR-expressing HEC-265 human endometrial adenocarcinoma cells; host or cells: HEC-265
How it was run: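 Competitive displacement of a 10 nM biotinylated peptide from HEC-265 cells (1 h, 4 °C, PBS/1% BSA), detected via APC-streptavidin by flow cytometry. pIC50 from four-parameter logistic fit of median fluorescence versus concentration.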

T1 sequence (Q03405 23-303): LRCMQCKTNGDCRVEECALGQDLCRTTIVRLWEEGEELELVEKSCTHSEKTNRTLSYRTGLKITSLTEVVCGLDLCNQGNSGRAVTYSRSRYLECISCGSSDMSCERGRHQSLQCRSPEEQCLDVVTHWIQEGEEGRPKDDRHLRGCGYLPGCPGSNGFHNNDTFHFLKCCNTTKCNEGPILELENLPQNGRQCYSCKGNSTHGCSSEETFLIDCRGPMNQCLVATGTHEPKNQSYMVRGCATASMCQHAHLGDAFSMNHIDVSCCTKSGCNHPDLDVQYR
T2 sequence (Q03405 23-335): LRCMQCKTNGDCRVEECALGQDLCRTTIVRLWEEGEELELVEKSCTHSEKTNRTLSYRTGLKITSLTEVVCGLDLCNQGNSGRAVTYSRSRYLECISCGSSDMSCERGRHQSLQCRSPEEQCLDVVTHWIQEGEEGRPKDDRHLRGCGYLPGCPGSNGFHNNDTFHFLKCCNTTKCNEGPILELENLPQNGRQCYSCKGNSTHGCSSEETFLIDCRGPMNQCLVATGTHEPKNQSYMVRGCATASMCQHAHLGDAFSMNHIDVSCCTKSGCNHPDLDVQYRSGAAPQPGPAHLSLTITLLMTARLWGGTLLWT

CCCCC(=O)N[C@H]1CSSC[C@@H](C(N)=O)NC(=O)[C@H](CCC)NC(=O)[C@H](CCCCN)NC(=O)[C@@H]2C[C@@H](O)CN2C(=O)[C@@H]2CCCN2C(=O)[C@H](Cc2ccccc2)NC(=O)[C@H](Cc2ccc(O)cc2)NC(=O)[C@H](CCC(N)=O)NC(=O)[C@H](CCCNC(=N)N)NC1=O [UPAR-385, Pent-[Cys-Arg-Gln-Tyr-Phe-Pro-Hyp-Lys-Nva-Cys]-NH2] (Pentanoyl-CRQYFP[Hyp]K[Nva]C-NH2; disulfide 1-10)
Kd (human uPAR (uPAR-Fc)): 10 to 100 nM
IC50 [1]: ≥ 126 nM

CCCCC(=O)N[C@H]1CSSC[C@@H](C(N)=O)NC(=O)[C@H](CCC)NC(=O)[C@H]([C@@H](C)CC)NC(=O)[C@@H]2C[C@@H](O)CN2C(=O)[C@@H]2C[C@@H]3CCCC[C@@H]3N2C(=O)[C@H](Cc2ccccc2)NC(=O)[C@H](Cc2ccc(O)cc2)NC(=O)[C@H](CCC(N)=O)NC(=O)[C@H](CCCNC(=N)N)NC1=O [UPAR-387, Pent-[Cys-Arg-Gln-Tyr-Phe-Oic-Hyp-Ile-Nva-Cys]-NH2] (Pentanoyl-CRQYF[Oic][Hyp]I[Nva]C-NH2; disulfide 1-10)
Kd (human uPAR (uPAR-Fc)): < 1.58 nM
IC50 [1]: ≤ 10 nM

CCCCC(=O)N[C@H]1CSSC[C@@H](C(N)=O)NC(=O)[C@H](CCC)NC(=O)[C@H]([C@@H](C)CC)NC(=O)[C@@H]2C[C@@H](O)CN2C(=O)[C@@H]2C[C@H](O)CN2C(=O)[C@H](Cc2ccccc2)NC(=O)[C@H](Cc2ccc(O)cc2)NC(=O)[C@H](CCCCNC(=O)CN2CCN(CC(=O)O)CCN(CC(=O)O)CCN(CC(=O)O)CC2)NC(=O)[C@H]([C@@H](C)O)NC1=O [UPAR-388, Pent-[Cys-Thr-Lys(DOTA)-Tyr-Phe-Chy-Hyp-Ile-Nva-Cys]-NH2] (Pentanoyl-CTK(DOTA)YF[cisHyp][Hyp]I[Nva]C-NH2; disulfide 1-10)
Kd (human uPAR (uPAR-Fc)): 1.58 to 10 nM
IC50 [1]: ≤ 10 nM

CCCCC(=O)N[C@H]1CCNC(=O)CC[C@@H](C(N)=O)NC(=O)[C@H](CCC)NC(=O)[C@H]([C@@H](C)CC)NC(=O)[C@@H]2C[C@@H](O)CN2C(=O)[C@@H]2CCCN2C(=O)[C@H](Cc2ccccc2)NC(=O)[C@H](Cc2ccc(O)cc2)NC(=O)[C@H](CCC(N)=O)NC(=O)[C@H](CCCNC(=N)N)NC1=O [UPAR-390, Pent-[Dab-Arg-Gln-Tyr-Phe-Pro-Hyp-Ile-Nva-Glu]-NH2] (Pentanoyl-[Dab]RQYFP[Hyp]I[Nva]E-NH2; lactam 1-10)
Kd (human uPAR (uPAR-Fc)): > 100 nM
IC50 [1]: ≥ 126 nM

CCCCC(=O)N[C@H]1CSSC[C@@H](C(N)=O)NC(=O)[C@H](CCC)NC(=O)[C@H]([C@@H](C)CC)NC(=O)[C@@H]2C[C@@H](O)CN2C(=O)[C@@H]2CCCN2C(=O)[C@H](Cc2ccccc2)NC(=O)[C@H](Cc2ccc(O)cc2)NC(=O)[C@H](CCC(N)=O)NC(=O)[C@H](CC(C)C)NC1=O [UPAR-391, Pent-[Cys-Leu-Gln-Tyr-Phe-Pro-Hyp-Ile-Nva-Cys]-NH2] (Pentanoyl-CLQYFP[Hyp]I[Nva]C-NH2; disulfide 1-10)
Kd (human uPAR (uPAR-Fc)): < 1.58 nM
IC50 [1]: ≤ 10 nM

CC[C@H](C)[C@@H]1NC(=O)[C@@H](C)NC(=O)[C@@H]2CCCN2C(=O)[C@H](Cc2ccccc2)NC(=O)[C@H](Cc2ccc(O)cc2)NC(=O)[C@H](CCCCNC(=O)CN2CCN(CC(=O)O)CCN(CC(=O)O)CCN(CC(=O)O)CC2)NC(=O)[C@@H](CC(=O)O)NC(=O)[C@@H](NC(=O)[C@H](CC(C)C)NC(=O)[C@H](CC(=O)O)NC(C)=O)CSSC[C@@H](C(N)=O)NC(=O)[C@H](CC(C)C)NC1=O [UPAR-392, Ac-Asp-Leu-[Cys-asp-Lys(DOTA)-Tyr-Phe-Pro-ala-Ile-Leu-Cys]-NH2] (Ac-DLC[dD]K(DOTA)YFP[dA]ILC-NH2; disulfide 3-12)
Kd (human uPAR (uPAR-Fc)): > 100 nM
IC50 [1]: ≥ 126 nM

CC[C@H](C)[C@@H]1NC(=O)[C@@H](C)NC(=O)[C@@H]2CCCN2C(=O)[C@H](Cc2ccccc2)NC(=O)[C@H](Cc2cccnc2)NC(=O)[C@H](CCC(N)=O)NC(=O)[C@H](CCCNC(N)=O)NC(=O)[C@@H](NC(=O)CCC(C)C)CSSC[C@@H](C(N)=O)NC(=O)[C@H](CC(C)C)NC1=O [UPAR-393, iHex-[Cys-Cit-Gln-Mpa-Phe-Pro-ala-Ile-Leu-Cys]-NH2] ({Pentanoyl(4-Me)}-C[Cit]Q[3Pal]FP[dA]ILC-NH2; disulfide 1-10)
Kd (human uPAR (uPAR-Fc)): < 1.58 nM
IC50 [1]: ≤ 10 nM

CC[C@H](C)[C@@H]1NC(=O)[C@@H](C)NC(=O)[C@@H]2CCCN2C(=O)[C@H](Cc2ccccc2)NC(=O)[C@H](Cc2ccc(O)cc2)NC(=O)[C@H](CCC(N)=O)NC(=O)[C@H](CCCNC(N)=O)NC(=O)[C@@H](NC(=O)CCCCN)CSSC[C@@H](C(N)=O)NC(=O)[C@H](CC(C)C)NC1=O [UPAR-394, H-Ava-[Cys-Cit-Gln-Tyr-Phe-Pro-ala-Ile-Leu-Cys]-NH2] (H-[Ava]C[Cit]QYFP[dA]ILC-NH2; disulfide 2-11)
Kd (human uPAR (uPAR-Fc)): > 100 nM
IC50 [1]: ≥ 126 nM

CCCCC(=O)N[C@H]1CSSC[C@@H](C(N)=O)NC(=O)[C@H](CCC)NC(=O)[C@H]([C@@H](C)CC)NC(=O)[C@@H]2C[C@@H](O)CN2C(=O)[C@@H]2CCCN2C(=O)[C@H](Cc2ccccc2)NC(=O)[C@H](Cc2ccccc2Cl)NC(=O)[C@H](CCC(N)=O)NC(=O)[C@H](CCCNC(=N)N)NC1=O [UPAR-395, Pent-[Cys-Arg-Gln-Ocf-Phe-Pro-Hyp-Ile-Nva-Cys]-NH2] (Pentanoyl-CRQ[Phe(2-Cl)]FP[Hyp]I[Nva]C-NH2; disulfide 1-10)
Kd (human uPAR (uPAR-Fc)): < 1.58 nM
IC50 [1]: ≤ 10 nM

CCCCC(=O)N[C@H]1CSSC[C@@H](C(N)=O)NC(=O)[C@H](CC(C)C)NC(=O)[C@H]([C@@H](C)CC)NC(=O)[C@@H]2CCCN2C(=O)[C@@H]2CCCN2C(=O)[C@H](Cc2ccccc2)NC(=O)[C@H](Cc2ccc(O)cc2)NC(=O)[C@H](CCCCNC(=O)CN2CCN(CC(=O)O)CCN(CC(=O)O)CCN(CC(=O)O)CC2)NC(=O)[C@H](CCCNC(N)=O)NC1=O [UPAR-396, Pent-[Cys-Cit-Lys(DOTA)-Tyr-Phe-Pro-Pro-Ile-Leu-Cys]-NH2] (Pentanoyl-C[Cit]K(DOTA)YFPPILC-NH2; disulfide 1-10)
Kd (human uPAR (uPAR-Fc)): < 1.58 nM
IC50 [1]: ≤ 10 nM

CCCCC(=O)N[C@@H]1C(=O)N[C@@H](CCCNC(N)=O)C(=O)N[C@@H](CCC(N)=O)C(=O)N[C@@H](Cc2ccc(O)cc2)C(=O)N[C@@H](Cc2ccccc2)C(=O)N2CCC[C@H]2C(=O)N2C[C@H](O)C[C@H]2C(=O)N[C@@H]([C@@H](C)CC)C(=O)N[C@@H](CCC)C(=O)N[C@H](C(N)=O)CSSC1(C)C [UPAR-397, Pent-[Pen-Cit-Gln-Tyr-Phe-Pro-Hyp-Ile-Nva-Cys]-NH2] (Pentanoyl-[Pen][Cit]QYFP[Hyp]I[Nva]C-NH2; disulfide 1-10)
Kd (human uPAR (uPAR-Fc)): < 1.58 nM
IC50 [1]: ≤ 10 nM

CCCCC(=O)N[C@H]1CSSC[C@@H](C(N)=O)NC(=O)[C@H](CCC)NC(=O)[C@H]([C@@H](C)CC)NC(=O)[C@@H]2C[C@@H](O)CN2C(=O)[C@@H]2CCCN2C(=O)[C@H](Cc2ccccc2)N(C)C(=O)[C@H](Cc2ccc(O)cc2)NC(=O)[C@H](CCCCNC(=O)CN2CCN(CC(=O)O)CCN(CC(=O)O)CCN(CC(=O)O)CC2)NC(=O)[C@H](CCCNC(N)=O)NC1=O [UPAR-398, Pent-[Cys-Cit-Lys(DOTA)-Tyr-Nmf-Pro-Hyp-Ile-Nva-Cys]-NH2] (Pentanoyl-C[Cit]K(DOTA)Y[NMeF]P[Hyp]I[Nva]C-NH2; disulfide 1-10)
Kd (human uPAR (uPAR-Fc)): > 100 nM
IC50 [1]: ≥ 126 nM

CCCCC(=O)N[C@H]1CSSC[C@@H](C(N)=O)NC(=O)[C@H](CCC)NC(=O)[C@H]([C@@H](C)CC)NC(=O)[C@@H]2C[C@@H](O)CN2C(=O)[C@@H]2CCCN2C(=O)[C@H](Cc2ccccc2)NC(=O)[C@H](Cc2ccc(O)c(O)c2)NC(=O)[C@H](CCCCNC(=O)CN2CCN(CC(=O)O)CCN(CC(=O)O)CCN(CC(=O)O)CC2)NC(=O)[C@H](CCCNC(N)=O)NC1=O [UPAR-399, Pent-[Cys-Cit-Lys(DOTA)-Dopa-Phe-Pro-Hyp-Ile-Nva-Cys]-NH2] (Pentanoyl-C[Cit]K(DOTA)[Dopa]FP[Hyp]I[Nva]C-NH2; disulfide 1-10)
Kd (human uPAR (uPAR-Fc)): < 1.58 nM
IC50 [1]: ≤ 10 nM

CCCCC(=O)N[C@H]1CSSC[C@@H](C(N)=O)NC(=O)[C@H](CCC)NC(=O)[C@H]([C@@H](C)CC)NC(=O)[C@@H]2C[C@@H](O)CN2C(=O)[C@H](Cc2ccccc2)NC(=O)[C@H](Cc2ccccc2)NC(=O)[C@H](Cc2ccc(O)cc2)NC(=O)[C@H](CCC(N)=O)NC(=O)[C@H](CCCNC(=N)N)NC1=O [UPAR-400, Pent-[Cys-Arg-Gln-Tyr-Phe-Phe-Hyp-Ile-Nva-Cys]-NH2] (Pentanoyl-CRQYFF[Hyp]I[Nva]C-NH2; disulfide 1-10)
Kd (human uPAR (uPAR-Fc)): 1.58 to 10 nM
IC50 [1]: ≤ 10 nM

CCCCC(=O)N[C@H]1CSSC[C@@H](C(N)=O)NC(=O)[C@H](CCC)NC(=O)[C@H]([C@@H](C)CC)NC(=O)[C@@H]2C[C@@H](O)CN2C(=O)[C@@H]2CCCN2C(=O)[C@H](Cc2ccccc2)NC(=O)[C@H](Cc2c[nH]c3ccccc23)NC(=O)[C@H](CCC(N)=O)NC(=O)[C@H](CCCNC(=N)N)NC1=O [UPAR-401, Pent-[Cys-Arg-Gln-Trp-Phe-Pro-Hyp-Ile-Nva-Cys]-NH2] (Pentanoyl-CRQWFP[Hyp]I[Nva]C-NH2; disulfide 1-10)
Kd (human uPAR (uPAR-Fc)): < 1.58 nM
IC50 [1]: ≤ 10 nM
